Laboratory results from patent publication US7122360B1, “Polypeptides, polynucleotides and uses thereof” (University of Dundee, priority 1998, dated 2006).
“Also recorded” adds a separate entry of the source.

Columns and labels:
CREB and ATF1 = assay: TNF induced CREB and ATF1 phosphorylation in HeLa cells; format: cell-based; conditions: for TNF-induced phosphorylation of CREB after 15 min / TNF-induced phosphorylation of CREB and ATF1 after 5 min: 50 μM PD 98059, 10 μM SB 203580
Protocol: FIG. 12. […] The position of CREB and ATF1 on the blots is indicated. The time of exposure (exp) of the blots before development is indicated.
(§1) Immunoblotting for phosphorylated CREB and ATF1. Cell extracts were prepared and immunoblotting of these carried out as described (Tan et al., 1996) using a phosphospecific antibody recognizing CREB phosphorylated on Ser 133 and ATF1 phosphorylated on Ser63 purchased from UBI (Lake Placid, USA). Detection of phosphorylated CREB and ATF1 proteins was performed using the enhanced chemiluminescence reagent (Amersham).

CREB [1] = assay: NGF-induced phosphorylation of CREB in PC12 cells; format: cell-based; conditions: 50 μM PD 98059, 10 μM SB 203580, 5 μM Ro 318220, NGF 30 ng/ml 15 min
Protocol: as §1

CREB [2] = assay: Arsenite and FGF-induced phosphorylation of CREB in SK-N-MC cells; format: cell-based; conditions: for FGF-induced phosphorylation of CREB: 50 μM PD 98059, 10 μM SB 203580, FGF 50 ng/ml 15 min
Protocol: FIG. 14. […] After cell lysis aliquots were assayed for either MSK1 (A), MAPKAP-K1 (B), MAPKAP-K2 (C) after their immunoprecipitation from the lysates or immunoblotted for phosphorylation of CREB and ATF1 (D).
as §1

MSK1 = assay: LPS-induced activation of MSK1 in RAW 264 macrophages; format: cell-based, mouse; conditions: for LPS-stimulated phosphorylation of MSK1: 50 μM PD 98059 or 10 (M SB203580), FIG. 15; for LPS-induced activation of MSK1: LPS 100 ng/ml 1 h, 10 μM UO 126, 10 μM SB 203580, 5 TM Ro 318220
Protocol: FIG. 15. […] After cell lysis aliquots were assayed for either MSK1 (A), MAPKAP-K1 (B), MAPKAP-K2 (C) after their immunoprecipitation from the lysates or immunoblotted for phosphorylation of CREB and ATF1 (D).
FIG. 18. Effect of inhibitors on the LPS-induced activation of protein kinases in RAW 264 macrophages. Macrophages were incubated for 1 h in the presence or absence 10 μM UO 126 (U) and/or 10 μM SB 203580 (SB), or 5 TM Ro 318220 (Ro), then stimulated for 1 h with or without 100 ng/ml LPS in the continued presence or absence of the inhibitors. MSK1(A), MSK2 (B), MAPKAP-KI (C) and MAPKAP-K2 (D) were then assayed after immunoprecipitation from the lysates.
(§2) Cell culture and stimulation. RAW 264 macrophages were maintained in a 95% air/5% CO2 atmosphere in Dulbecco's modified Eagle's medium (DMEM) plus 10% (v/v) heat-inactivated foetal calf serum, 100 U/ml penicillin, […] streptomycin. The day before stimulation, the macrophages were plated at a density of 2×10^6 cells per 6 cm plate and 2 h before stimulation, the medium removed and replaced with 2 ml of DMEM. Where indicated, […] (10 TM) and/or PD 98059 (50 Tm), or U0126 (10 TM) or Ro 318220 (5 TM), were added 1 h before stimulation.
Cell lysis. After stimulation, the medium was aspirated and the cells were solubilized in 0.2 ml of ice cold lysis buffer (50 mM Tris-acetate pH 7.0, 1 mM EDTA, 1 mM EGTA, 1% (w/v) Triton X-100, 1 mM sodium orthovanadate, 10 mM sodium glycerophosphate, 50 mM NaF, 5 mM sodium pyrophosphate, 0.27 M sucrose, 2 TM microcystin-LR, 1 mM benzamidine, 0.1% (v/v) 2-mercaptoethanol and “complete” proteinase inhibitor cocktail—one tablet per 50 ml). The samples were then snap frozen in liquid nitrogen and stored in aliquots at −80° C. until analysis. Protein concentrations were determined according to [7].

COX-2 protein = assay: Induction of COX-2 protein in RAW 264 macrophages, immunoblot; format: cell-based, mouse; conditions: LPS 100 ng/ml 4 h, 50 TM PD 98059, 10 TM SB 203580, 5 TM Ro 318220
Protocol: FIG. 20. […] (A) Macrophages were stimulated for the times indicated with LPS (100 ng/ml).
FIG. 22. […] (A) Macrophages were stimulated for 1 h with LPS (100 ng/ml) or for 15 min with forskolin (F) (20 TM) plus IBMX (10 TM). After cell lysis, aliquots of the lysate (30 Tg protein) were immunoblotted with a phospho-specific CREB antibody (see legend to FIG. 19 for details and molecular mass markers). (B) Macrophages were stimulated for 3 h with LPS (100 ng/ml), or forskolin (20 TM) plus IBMX (10 TM), and immunoblotting performed with a specific COX-2 antibody (materials & methods section). The marker proteins are as in FIG. 19.
as §2
Immunoblotting. For immunoblotting of CREB, nuclear cell extracts were prepared as described and immunoblotting performed using a phospho-specific antibody recognising CREB phosphorylated on Ser 133 and ATF1 phosphorylated on Ser 63. For immunoblotting of COX-2, cell lysate (30 Tg protein) was denatured in SDS, electrophoresed on 10% polyacrylamide gel, transferred to a nitrocellulose membrane, and immunoblotted with anti-COX-2 antibody (1.0 mg/ml). Detection of phosphorylated CREB and ATF1 and COX-2 was performed using the enhanced chemiluminescence reagent (ECL).

COX-2 mRNA = assay: COX-2 gene transcription in RAW 264 macrophages, RT-PCR; format: cell-based, mouse; conditions: LPS 3 h, PD 98059 (50 TM), SB 203580 (10 TM), Ro 318220 (5 TM)
Protocol: (§3) FIG. 21. Effect of PD 98059 and SB 203580 on gene transcription in RAW 264 macrophages. (A) Cells were stimulated for the times indicated with LPS (100 ng/ml). Total RNA was extracted at each time point and mRNA encoding IL-1, COX-2 and HRPT was determined using the reverse transcriptase polymerase chain reaction (Section 2.6). (B) As in A, except that the macrophages were incubated for 1 h in the presence or absence of PD 98059 (50 TM) and/or SB 203580 (10 TM), or Ro 318220 (5 TM), then stimulated for 3 h in the absence or presence of LPS, and in the continued presence or absence of the inhibitors. RTPCR was performed using oligonucleotides encoding fragments of IL-1, COX-2 and HPRT.
as §2
(§4) Reverse transcripts polymerase chain reactions. Total RNA was prepared from LPS-stimulated or control RAW 264 cells using the Rneasy Mini Kit according to the manufacturer's protocol. Total RNA was measured and 100 ng was reverse transcribed using Promega AMV reverse transcriptase (5 U/ml) with the oligonucleotides […] and […] TGA (coding for the IL-1 gene) and […] and […] (coding for the COX-2 gene). Conditions for PCR amplification of the resulting first-stand DNA template were 94° C. denaturing for 30 sec, 60° C. annealing for 1 min, 68° C. extension for 1 min, 30 cycles using thermostable Tf1 DNA polymerase (SU/ml), and 1 mM MgSO4.

HPRT mRNA = assay: HPRT housekeeping gene mRNA in RAW 264 macrophages, RT-PCR; format: cell-based, mouse; conditions: PD 98059 (50 TM), SB 203580 (10 TM), Ro 318220 (5 TM)
Protocol: as §3, §2, §4

Compound | TNF-induced phosphorylation of CREB after 15 min (CREB and ATF1) | TNF-induced phosphorylation of CREB and ATF1 after 5 min (CREB and ATF1) | NGF-induced phosphorylation of CREB (CREB [1]) | FGF-induced phosphorylation of CREB (CREB [2]) | LPS-stimulated phosphorylation of MSK1 (MSK1) | LPS-stimulated induction of COX-2 protein (COX-2 protein) | LPS induction of COX-2 mRNA (COX-2 mRNA) | mRNA encoding the housekeeping gene HPRT (HPRT mRNA) | TNF-induced CREB phosphorylation (CREB and ATF1; 5 μM Ro 318220) | phosphorylation of CREB at Ser133 (CREB [2]; sodium arsenite or FGF, 5 μM Ro 318220) | LPS-induced activation of MSK1 (MSK1) | sodium arsenite-induced activation of CREB (CREB [2]; 50 μM PD 98059, 10 μM SB 203580, arsenite 0.5 mM 15 min)
COc1cccc(-c2cc(=O)c3ccccc3o2)c1N [PD 98059] | slightly suppressed | unaffected | not significantly affected | only inhibited slightly; also recorded: did not significantly suppress | appear to inhibit | partially inhibited | partially suppressed | unaffected | – | – | – | –
Cn1cc(C2=C(c3cn(CCCSC(=N)N)c4ccccc34)C(=O)NC2=O)c2ccccc21 [Ro 318220] | – | – | suppressed | – | – | suppresses | suppresses | unaffected | completely blocked | largely suppressed | does not affect | –
C[S+]([O-])c1ccc(-c2nc(-c3ccncc3)c(-c3ccc(F)cc3)[nH]2)cc1 (stereo not shown) [SB 203580] | partially suppressed | prevented | not significantly affected | only inhibited slightly | appear to inhibit | partially inhibited | partially suppressed | unaffected | – | – | only inhibited partially | prevented
